In patent US20260159536A1, “AKR1C3-ACTIVATED DNA ALKYLATING AGENT, AND MEDICAL APPLICATION THEREOF” (ASCENTAWITS PHARMACEUTICALS, LTD., priority 2021, published 2026):

Assays:
[1] = system: human lung cancer NCI-H460 cells; assay: In vivo pharmacodynamics, NCI-H460 subcutaneous xenograft model; design: species or system BALB/c nude mice; conditions: for Tumor volume (x ± S): in mm³ (unit assumed)
[2] = system: human liver cancer LI6652; assay: In vivo pharmacodynamics, liver cancer LI6652 subcutaneous xenograft PDX model; design: species or system BALB/c nude mice; conditions: for Relative tumor volume (x ± S) / T/C (%) / TGI (%) / Tumor volume (x ± S): 2 weeks off, 2 cycles
Method: The pharmacodynamic analysis of each group in liver cancer LI6652 model was performed on Day 31 after administration, and the results were shown in Table 12.

[3] = 1.25 mg/kg i.p. QDx5, 2 days off, Day 28
[4] = 2.5 mg/kg i.p. QDx5, 2 days off, Day 28
[5] = 5 mg/kg i.p. QDx5, 2 days off, Day 28

With O=[N+]([O-])c1ccc(C(OP(=O)(N2CC2)N2CC2)C(F)(F)F)cc1Oc1ccc(-c2ccc(F)cc2)c(F)c1 (racemic) [Compound A] the “T/C (%)” value ([1]; 5 mg/kg, QWx3, i.v., Day 31) was 18.51%, the “TGI (%)” value ([1]; 5 mg/kg, QWx3, i.v., Day 31) was 81.49% and the “Tumor volume (x ± S)” value ([1]; 5 mg/kg, QWx3, i.v., Day 31) was 337.78 ± 54.37. The Tumor volume ([1]; 10 mg/kg i.v., Day 7) was 144.21 mm^3, the Tumor volume ([1]; 10 mg/kg i.v., Day 10) was 164.75 mm^3 and the Tumor volume ([1]; 10 mg/kg i.v., Day 14) was 151.95 mm^3. For the same molecule, the Tumor volume ([1]; 10 mg/kg i.v., Day 17) was 140.29 mm^3, the Tumor volume ([1]; 10 mg/kg i.v., Day 21) was 138.66 mm^3 and the Tumor volume ([1]; 10 mg/kg i.v., Day 24) was 144.36 mm^3. It also gave a Tumor volume ([1]; 10 mg/kg i.v., Day 28) of 149.16 mm^3, a Tumor volume ([1]; 10 mg/kg i.v., Day 31) of 164.13 mm^3 and a Tumor volume ([1]; 10 mg/kg i.v., Day 35) of 168.68 mm^3. For the same molecule, the “Relative tumor volume (x ± S)” value ([1]; 10 mg/kg, QWx3, i.v., Day 31) was 1.18 ± 0.27, the “TGI (%)” value ([1]; 10 mg/kg, QWx3, i.v., Day 31) was 91.06% and the Tumor volume ([1]; 15 mg/kg i.v., Day 7) was 145.41 mm^3. For the same molecule, the Tumor volume ([1]; 15 mg/kg i.v., Day 10) was 171.22 mm^3, the Tumor volume ([1]; 15 mg/kg i.v., Day 14) was 167.54 mm^3 and the Tumor volume ([1]; 15 mg/kg i.v., Day 17) was 161.80 mm^3. The Tumor volume ([1]; 15 mg/kg i.v., Day 21) was 157.66 mm^3, the Tumor volume ([1]; 15 mg/kg i.v., Day 24) was 151.20 mm^3 and the Tumor volume ([1]; 15 mg/kg i.v., Day 28) was 134.73 mm^3. The Tumor volume ([1]; 15 mg/kg i.v., Day 35) was 108.70 mm^3, the “T/C (%)” value ([1]; 15 mg/kg, QWx3, i.v., Day 31) was 6.94% and the “Tumor volume (x ± S)” value ([1]; 15 mg/kg, QWx3, i.v., Day 31) was 125.90 ± 25.46. The “effect on body weights” value ([1]; 5, 10, 15 mg/kg, at least 31 days) was “no significant effect on the body weights”, the “Relative tumor volume (x ± S)” value [2, 3] was 0.18 ± 0.07 and the “T/C (%)” value [2, 3] was 1.23%. For the same molecule, the “TGI (%)” value [2, 3] was 98.77%, the “Tumor volume (x ± S)” value [2, 3] was 24.72 ± 9.57 and the Tumor volume ([2]; 1.25 mg/kg i.p., Day 0) was 126.30 mm^3. The Tumor volume ([2]; 1.25 mg/kg i.p., Day 3) was 184.11 mm^3, the Tumor volume ([2]; 1.25 mg/kg i.p., Day 7) was 194.19 mm^3 and the Tumor volume ([2]; 1.25 mg/kg i.p., Day 10) was 135.63 mm^3. The Tumor volume ([2]; 1.25 mg/kg i.p., Day 14) was 51.98 mm^3, the Tumor volume ([2]; 1.25 mg/kg i.p., Day 17) was 28.94 mm^3 and the Tumor volume ([2]; 1.25 mg/kg i.p., Day 21) was 29.42 mm^3. It also gave a Tumor volume ([2]; 1.25 mg/kg i.p., Day 24) of 28.38 mm^3, a Tumor volume ([2]; 1.25 mg/kg i.p., Day 28) of 24.72 mm^3 and a Tumor volume ([2]; 1.25 mg/kg i.p., Day 31) of 18.12 mm^3. For the same molecule, the “Relative tumor volume (x ± S)” value [2, 4] was 0.17 ± 0.10, the “T/C (%)” value [2, 4] was 1.16% and the “TGI (%)” value [2, 4] was 98.84%. The “Tumor volume (x ± S)” value [2, 4] was 18.28 ± 8.14, the Tumor volume ([2]; 2.5 mg/kg i.p., Day 0) was 126.29 mm^3 and the Tumor volume ([2]; 2.5 mg/kg i.p., Day 3) was 179.46 mm^3. It also gave a Tumor volume ([2]; 2.5 mg/kg i.p., Day 7) of 189.33 mm^3, a Tumor volume ([2]; 2.5 mg/kg i.p., Day 10) of 145.19 mm^3 and a Tumor volume ([2]; 2.5 mg/kg i.p., Day 14) of 43.64 mm^3. For the same molecule, the Tumor volume ([2]; 2.5 mg/kg i.p., Day 17) was 29.90 mm^3, the Tumor volume ([2]; 2.5 mg/kg i.p., Day 21) was 21.49 mm^3 and the Tumor volume ([2]; 2.5 mg/kg i.p., Day 24) was 17.91 mm^3. The Tumor volume ([2]; 2.5 mg/kg i.p., Day 28) was 18.28 mm^3, the Tumor volume ([2]; 2.5 mg/kg i.p., Day 31) was 5.56 mm^3 and the “Relative tumor volume (x ± S)” value [2, 5] was 0.02 ± 0.02. For the same molecule, the “T/C (%)” value [2, 5] was 0.14%, the “Tumor volume (x ± S)” value [2, 5] was 3.38 ± 3.38 and the Tumor volume ([2]; 5 mg/kg i.p., Day 0) was 124.83 mm^3. For the same molecule, the Tumor volume ([2]; 5 mg/kg i.p., Day 3) was 174.91 mm^3, the Tumor volume ([2]; 5 mg/kg i.p., Day 7) was 190.90 mm^3 and the Tumor volume ([2]; 5 mg/kg i.p., Day 10) was 130.55 mm^3. It also gave a Tumor volume ([2]; 5 mg/kg i.p., Day 14) of 34.29 mm^3, a Tumor volume ([2]; 5 mg/kg i.p., Day 17) of 19.84 mm^3 and a Tumor volume ([2]; 5 mg/kg i.p., Day 21) of 13.80 mm^3. The Tumor volume ([2]; 5 mg/kg i.p., Day 24) was 12.20 mm^3, the Tumor volume ([2]; 5 mg/kg i.p., Day 28) was 3.38 mm^3 and the Tumor volume ([2]; 5 mg/kg i.p., Day 31) was 2.62 mm^3. The “relative tumor inhibition TGI (%)” value ([2]; 1.25, 2.5, 5 mg/kg i.p.) was “exceeding 98%” and the “effect on body weight” value ([2]; 1.25, 2.5, 5 mg/kg, at least 28 days) was “no significant effect on the body weight”.
